Structures can show the parent of a compound that is named as a salt.
Tests used:
DNMT1 = DNMT1 (Homo sapiens, UniProt P26358); experiment: Selective depletion of DNMT1 by Western blot in treated HCT116 cells; assay type: cell-based; parameters: Protein extracts (equivalent to 100 μg) were isolated from HCT116 cells; endogenous in cells; host or cells: HCT116; conditions: for % DNMT1 protein level remaining at 5 µM: HCT-116, 5 μM; for % DNMT1 protein level remaining at 10 µM: HCT-116, 10 μM
From the text: Biol. 2005, 11, 4727-41.]. For DNMT1, commercially available antibodies from Santa Cruz or New England Biolabs were used.

DNMT1, sequence (P26358 whole entry): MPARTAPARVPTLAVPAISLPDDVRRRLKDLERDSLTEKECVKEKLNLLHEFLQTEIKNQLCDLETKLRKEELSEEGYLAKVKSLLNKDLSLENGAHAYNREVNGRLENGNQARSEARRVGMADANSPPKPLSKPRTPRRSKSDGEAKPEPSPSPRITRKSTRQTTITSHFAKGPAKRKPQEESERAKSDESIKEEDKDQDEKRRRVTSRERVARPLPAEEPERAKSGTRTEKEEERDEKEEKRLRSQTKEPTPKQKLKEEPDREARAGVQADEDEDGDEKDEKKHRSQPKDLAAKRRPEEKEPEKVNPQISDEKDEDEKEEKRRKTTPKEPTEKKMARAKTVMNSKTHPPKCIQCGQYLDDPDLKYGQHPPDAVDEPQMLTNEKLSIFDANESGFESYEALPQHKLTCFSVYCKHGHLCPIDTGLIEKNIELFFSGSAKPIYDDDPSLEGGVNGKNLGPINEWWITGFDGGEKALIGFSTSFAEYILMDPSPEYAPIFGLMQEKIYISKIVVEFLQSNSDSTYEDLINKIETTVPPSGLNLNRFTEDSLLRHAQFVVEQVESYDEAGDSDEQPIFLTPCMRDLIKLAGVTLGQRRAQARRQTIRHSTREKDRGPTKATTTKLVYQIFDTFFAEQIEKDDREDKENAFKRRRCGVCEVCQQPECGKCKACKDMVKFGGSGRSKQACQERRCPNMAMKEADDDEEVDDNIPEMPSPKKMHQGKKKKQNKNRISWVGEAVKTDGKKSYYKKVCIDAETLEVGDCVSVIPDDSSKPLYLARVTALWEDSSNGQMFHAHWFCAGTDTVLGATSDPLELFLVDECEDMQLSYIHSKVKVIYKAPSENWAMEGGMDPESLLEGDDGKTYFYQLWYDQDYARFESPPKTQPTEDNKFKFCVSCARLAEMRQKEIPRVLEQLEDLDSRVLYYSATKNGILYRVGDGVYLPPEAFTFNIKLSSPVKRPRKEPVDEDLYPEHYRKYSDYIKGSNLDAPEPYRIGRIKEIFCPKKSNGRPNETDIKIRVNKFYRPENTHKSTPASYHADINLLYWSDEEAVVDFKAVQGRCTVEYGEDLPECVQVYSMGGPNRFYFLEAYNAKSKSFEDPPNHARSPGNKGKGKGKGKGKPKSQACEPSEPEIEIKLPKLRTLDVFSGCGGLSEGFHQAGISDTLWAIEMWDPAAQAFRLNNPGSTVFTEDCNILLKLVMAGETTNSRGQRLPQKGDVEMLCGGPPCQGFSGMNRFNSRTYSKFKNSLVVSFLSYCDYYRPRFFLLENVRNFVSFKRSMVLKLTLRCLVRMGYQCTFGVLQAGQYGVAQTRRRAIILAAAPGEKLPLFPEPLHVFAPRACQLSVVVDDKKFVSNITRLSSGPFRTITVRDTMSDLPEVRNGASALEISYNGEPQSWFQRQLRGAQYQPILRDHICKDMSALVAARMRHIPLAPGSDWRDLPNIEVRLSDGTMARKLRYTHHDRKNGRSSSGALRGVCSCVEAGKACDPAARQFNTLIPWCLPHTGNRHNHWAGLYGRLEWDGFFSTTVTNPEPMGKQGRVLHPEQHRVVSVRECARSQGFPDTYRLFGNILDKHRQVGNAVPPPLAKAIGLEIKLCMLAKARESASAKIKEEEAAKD

Compound	% DNMT1 protein level remaining at 5 µM (DNMT1) [%]	% DNMT1 protein level remaining at 10 µM (DNMT1) [%]	melting point [°C]	also measured
C[n+]1ccc(Nc2ccc(NC(=O)c3ccc(Nc4ccnc5ccc([N+](=O)[O-])cc45)cc3)cc2)cc1 [Cpd. G, 1-methyl-4-(4-(4-(6-nitroquinolin-4-ylamino)benzamido)phenylamino)pyridinium chloride hydrochloride]	95	95	–	% DNMT1 protein level remaining at 100 µM (DNMT1; HCT-116, 100 μM): 100%
C/C(=N\N=C(N)N)c1ccc(NC(=O)c2ccc(Nc3ccnc4ccc(N(C)C)cc34)cc2)cc1 (as salt: hydrochloride) [Cpd. NN, (E)-N-(4-(1-((Diaminomethylene)hydrazono)ethyl)phenyl)-4-(6-(dimethylamino)quinolin-4-ylamino)benzamide Dihydrochloride]	–	–	> 280	–
Cc1cc(Nc2ccc(C(=O)Nc3ccc(Nc4ccnc5ccccc45)cc3)cc2)nc(N)n1 [Cpd. GG1, 4-[(2-amino-6-methyl-4-pyrimidinyl)amino]-N-[4-(4-quinolinylamino)phenyl]benzamide dihydrochloride]	25	20	–	–
Cc1cc(Nc2cccc(C(=O)Nc3ccc(Nc4ccnc5ccc(N(C)C)cc45)cc3)c2)nc(N)n1 (as salt: chloride) [Cpd. EE, 4-[4-({3-[(2-amino-6-methyl-4-pyrimidinyl)amino]benzoyl}amino)anilino]-6-(dimethylamino)quinolinium chloride]	–	–	> 300	–
Cc1cc(Nc2ccc(C(=O)Nc3ccc(Nc4ccnc5cc([N+](=O)[O-])ccc45)cc3)cc2)nc(N)n1 (as salt: hydrochloride) [Cpd. GG5, 4-[(2-Amino-6-methyl-4-pyrimidinyl)amino]-N-{4-[(7-nitro-4-quinolinyl)amino]phenyl}benzamide dihydrochloride]	–	–	> 300	–
Nc1cc(Nc2cccc(C(=O)Nc3ccc(Nc4ccnc5ccccc45)cc3)c2)nc(N)n1 [Cpd. FF2, 3-[(2,6-Diamino-4-pyrimidinyl)amino]-N-[4-(4-quinolinylamino)-phenyl]benzamide dihydrochloride]	85	83	–	–
Cc1cc(Nc2cccc(C(=O)Nc3ccc(Nc4ccnc5ccc([N+](=O)[O-])cc45)cc3)c2)nc(N)n1 [RR2, 3-[(2-amino-6-methyl-4-pyrimidinyl)amino]-N-{4-[(6-nitro-4-quinolinyl)amino]phenyl}benzamide dihydrochloride]	–	100	–	–
C/C(=N\N=C(N)N)c1ccc(NC(=O)c2ccc(Nc3ccnc4ccc(N(C)C)cc34)cc2)cc1 [Cpd. NN, (E)-N-(4-(1-((Diaminomethylene)hydrazono)ethyl)phenyl)-4-(6-(dimethylamino)quinolin-4-ylamino)benzamide Dihydrochloride]	70	70	–	–
Cc1cc(Nc2cccc(C(=O)Nc3ccc(Nc4ccnc5ccccc45)cc3)c2)nc(N)n1 (as salt: hydrochloride) [Cpd. FF1, 3-[(2-amino-6-methyl-4-pyrimidinyl)amino]-N-[4-(4-quinolinylamino)phenyl]benzamide dihydrochloride]	–	–	> 300	–
Cl.Cl.O=C(Nc1ccc(Nc2ccncc2)cc1)c1ccc(Nc2ccnc3ccccc23)cc1 [Cpd. EEE2, n-[4-(pyridin-4-ylamino)phenyl]-4-(quinolin-4-ylamino)benzamide dihydrochloride]	–	–	–	% DNMT1 Level (DNMT1; 5 μM): 3%; % DNMT1 Level (DNMT1; 10 μM): 0%
C[n+]1ccc(Nc2ccc(C(=O)Nc3ccc(Nc4ccnc5ccc(N)cc45)cc3)cc2)cc1 (as salt: chloride) [Cpd. N, 4-[4-({4-[(6-amino-4-quinolinyl)amino]anilino}carbonyl)anilino]-1-methylpyridinium chloride]	–	–	> 300	–
Cc1cc(Nc2cccc(C(=O)Nc3ccc(Nc4ccnc5ccccc45)cc3)c2)nc(N)n1 [Cpd. FF1, 3-[(2-amino-6-methyl-4-pyrimidinyl)amino]-N-[4-(4-quinolinylamino)phenyl]benzamide dihydrochloride]	15	5	–	–
Cc1cc(Nc2ccc(NC(=O)c3ccc(Nc4ccnc5cc(N(C)C)ccc45)cc3)cc2)nc(N)n1 (as salt: hydrochloride) [Cpd. BB, N-[4-(2-amino-6-methylpyrimidin-4-ylamino)phenyl]-4-(7-(dimethylamino)quinolin-4-ylamino)benzamide hydrochloride]	–	–	272 to 275	–
C[n+]1ccc(Nc2ccc(NC(=O)c3ccc(Nc4ccnc5ccccc45)cc3)cc2)cc1 (as salt: hydrochloride) [Cpd. B, 1-methyl-4-(4-(4-(quinolin-4-ylamino)benzamido)phenylamino)pyridinium chloride hydrochloride]	–	–	> 300	–
Nc1cc(Nc2cccc(C(=O)Nc3ccc(Nc4ccnc5ccc([N+](=O)[O-])cc45)cc3)c2)nc(N)n1 (as salt: hydrochloride) [Cpd. RR1, 3-[(2,6-diamino-4-pyrimidinyl)amino]-N-{4-[(6-nitro-4-quinolinyl)amino]phenyl}benzamide dihydrochloride]	–	–	> 300	–
Cc1cc(Nc2ccc(C(=O)Nc3ccc(Nc4ccnc5ccc([N+](=O)[O-])cc45)cc3)cc2)nc(N)n1 [Cpd. GG4, 4-[(2-Amino-6-methyl-4-pyrimidinyl)amino]-N-{4-[(6-nitro-4-quinolinyl)amino]phenyl}benzamide dihydrochloride]	–	90	–	–
C/C(=N\N=C(N)N)c1cccc(C(=O)Nc2ccc(Nc3ccnc4ccc(N(C)C)cc34)cc2)c1 (as salt: chloride) [Cpd. QQ, 4-[4-({3-[(1E)-N-(diaminomethylene)ethanehydrazonoyl]-benzoyl}amino)anilino]-6-(dimethylamino)quinolinium chloride]	–	–	> 280	–
C/C(=N\N=C(N)N)c1cccc(NC(=O)c2ccc(Nc3ccnc4ccccc34)cc2)c1 [Cpd. JJ2, (E)-N-[3-(1-{(Diaminomethylene)hydrazono}ethyl)phenyl]-4-(quinolin-4-ylamino)benzamide dihydrochloride]	147	130	–	–
Cc1cc(Nc2ccc(NC(=O)c3ccc(Nc4ccnc5c(F)c(F)c(F)cc45)cc3)cc2)nc(N)n1 [Cpd. KK, n-[4-(2-amino-6-methylpyrimidin-4-ylamino)phenyl]-4-(6,7,8-trifluoroquinolin-4-ylamino)benzamide dihydrochloride]	82	20	–	–
Cc1cc(Nc2cccc(C(=O)Nc3ccc(Nc4ccnc5ccc(N(C)C)cc45)cc3)c2)nc(N)n1 [Cpd. EE, 4-[4-({3-[(2-amino-6-methyl-4-pyrimidinyl)amino]benzoyl}amino)anilino]-6-(dimethylamino)quinolinium chloride]	30	10	–	–
Cc1cc(Nc2ccc(C(=O)Nc3ccc(Nc4ccnc5cc([N+](=O)[O-])ccc45)cc3)cc2)nc(N)n1 [Cpd. GG5, 4-[(2-Amino-6-methyl-4-pyrimidinyl)amino]-N-{4-[(7-nitro-4-quinolinyl)amino]phenyl}benzamide dihydrochloride]	–	90	–	–
C/C(=N\N=C(N)N)c1cccc(C(=O)Nc2ccc(Nc3ccnc4ccc(N(C)C)cc34)cc2)c1 [Cpd. QQ, 4-[4-({3-[(1E)-N-(diaminomethylene)ethanehydrazonoyl]-benzoyl}amino)anilino]-6-(dimethylamino)quinolinium chloride]	60	50	–	–
Cc1cc(Nc2ccc(C(=O)Nc3ccc(Nc4ccnc5ccc(N)cc45)cc3)cc2)nc(N)n1 [Cpd. GG3, 4-[(2-amino-6-methyl-4-pyrimidinyl)amino]-N-{4-[(6-amino-4-quinolinyl)amino]phenyl}benzamide dihydrochloride]	110	10	–	–
C/C(=N\N=C(N)N)c1ccc(C(=O)Nc2ccc(Nc3ccnc4ccc(N(C)C)cc34)cc2)cc1 [Cpd. PP, 4-[(1E)-N-(diaminomethylene)ethanehydrazonoyl]-N-(4-{[6-(dimethylamino)-4-quinolinyl]amino}phenyl)benzamide dihydrochloride]	60	70	–	–
Cc1cc(Nc2cccc(C(=O)Nc3ccc(Nc4ccnc5ccc(N)cc45)cc3)c2)nc(N)n1 [RR3, 3-[(2-Amino-6-methyl-4-pyrimidinyl)amino]-N-{4-[(6-amino-4-quinolinyl)amino]phenyl}benzamide dihydrochloride]	–	100	–	–
Cc1cc(Nc2ccc(C(=O)Nc3ccc(Nc4ccnc5ccc(N(C)C)cc45)cc3)cc2)nc(N)n1 [Cpd. HH, 4-[(2-amino-6-methyl-4-pyrimidinyl)amino]-N-(4-{[6-(dimethylamino)-4-quinolinyl]amino}phenyl)benzamide dihydrochloride]	–	90	–	–
Cc1cc(Nc2ccc(C(=O)Nc3ccc(Nc4ccnc5cc(N)ccc45)cc3)cc2)nc(N)n1 [Cpd. GG2, 4-[(2-Amino-6-methyl-4-pyrimidinyl)amino]-N-{4-[(7-amino-4-quinolinyl)amino]phenyl}benzamide dihydrochloride]	85	52	–	–
C/C(=N\N=C(N)N)c1cccc(NC(=O)c2ccc(Nc3ccnc4ccc(N(C)C)cc34)cc2)c1 [Cpd. JJ1, (E)-N-[3-(1-{(diaminomethylene)hydrazono}ethyl)phenyl]-4-[6-(dimethylamino)quinolin-4-ylamino]benzamide dihydrochloride]	75	70	–	–
Nc1cc(Nc2cccc(C(=O)Nc3ccc(Nc4ccnc5ccc([N+](=O)[O-])cc45)cc3)c2)nc(N)n1 [Cpd. RR1, 3-[(2,6-diamino-4-pyrimidinyl)amino]-N-{4-[(6-nitro-4-quinolinyl)amino]phenyl}benzamide dihydrochloride]	–	100	–	–

From patent US7939546B2, “Quinoline derivatives for modulating DNA methylation” (SuperGen, Inc., priority 2007, dated 2011)
